# Measured values taken from article PMC7900953, “Location of a single histidine within peptide carriers increases mRNA delivery” (The Journal of Gene Medicine, 2020).
# Assays:
# MDA‐MB‐231 cells [1] = assay: In vitro transfection of luciferase-expressing mRNA with HK polyplexes; format: cell-based; conditions: for Effectiveness as carrier of mRNA: luciferase mRNA polyplexes; for Luciferase activity, RLU/µg-Protein: polyplex in Opti-MEM on cells 4 h, then DMEM/10% serum, luciferase 24 h later, mean ± SD
# Method: Several HK peptides were examined for their ability to carry a luciferase‐expressing mRNA (CleanCap Firefly Luciferase mRNA; Trilink Biotechnologies, Inc., San Diego, CA, USA) into MDA‐MB‐231 cells (America Type Tissue Culture, Manassas, VA, USA). In brief, 3 × 10^4 cells were plated into a 24‐well plate containing 500 μl of Dulbecco’s modified Eagle’s medium (DMEM) and 10% fetal bovine serum (Thermo Fisher Scientific, Waltham, MA, USA). After 24 hours, when the cells were 60–80% confluent, the media in each well was changed to Opti‐MEM (Thermo Fisher Scientific). To prepare HK polyplexes, mRNA (1 μg) in 50 μl of Opti‐MEM was briefly mixed well with one of the HK peptides (4–12 μg) and maintained at room temperature for 30 minutes. This polyplex was then added dropwise to the cells. After 4 hours, the Opti‐MEM media was removed and replaced with 0.5 ml of DMEM/10% serum. Twenty‐four hours later, the cells were lysed, and luciferase activity (Promega Corporation, Madison, WI, USA) was measured. ^28 Also, a negative control (mRNA without the carrier) was added to the cells and luciferase activity measured 24 hours later.
# FIGURE 1 Comparison of H3K(+H)4b and H3K4b peptides as carriers of mRNA. To form polyplexes, the mRNA (1 μg) was mixed with three different ratios of the HK (4, 8 and 12 μg) polymer for 30 minutes. The mRNA polyplexes were then added to the cells as described in the Materials and methods, and luciferase activity was measured 24 hours later. ***p < 0.001; ****p < 0.0001, H3K(+H)4b versus H3K4b
# FIGURE 6 Comparing H3K(+H)4b and other four‐branched HK peptides for mRNA transfection. After polyplexes were formed with HK peptides (4 μg) and luciferase‐expressing mRNA (1 μg) and added to cells, luciferase activity was measured […] later. These HK peptides contained an additional histidine in the second motif.
# FIGURE 7 Comparison of H3K(+H)4b with branched peptides without an additional histidine in the second motif. Polyplexes were formed with mRNA (1 μg) and various HK peptides (4 μg) and, after their addition to cells, luciferase activity was determined 24 h later. H3K(1+H)4b and H3K(3+H)4b peptides have an extra histidine in the first and third domains, respectively. H3K(1,3+H)4b has two additional histidines: one in the first and the other third motif. […] Unlike H3K(+H)4b, the predominant repeating motif of H2K4b in its branch is ‐HHK. ***p < 0.001, H3K(+H)4b versus H2K4b or H3K(1,3+H)4b; ****p < 0.0001, H3K(+H)4b versus H3K(1+H)4b or H3K(3+H)4b motifs
# To prepare HK polyplexes, luciferase-expressing mRNA (1 µg) in 50 µl of Opti-MEM was briefly mixed with one of the HK peptides (4, 8, or 12 µg) and maintained at room temperature for 30 min. This polyplex was then added dropwise to the MDA-MB-231 cells and after four h, the Opti-MEM media was removed and replaced with DMEM/10% serum. Twenty-four hours later, luciferase activity was measured.
# MDA‐MB‐231 cells [2] = assay: Cell viability assay (trypan blue exclusion); format: cell-based; conditions: polymer alone (4 µg), 5 h in Opti-MEM, then DMEM/10% FBS 19 h
# Method: MDA‐MB‐231 cells were seeded at 5.0 × 10^4 per well in a 24‐tissue culture plate and incubated overnight in DMEM supplemented with 10% fetal bovine serum (FBS) serum. The media was then changed to Opti‐MEM and the cells were treated with either the polymer (4 μg) or the polyplex (4 μg of HK; 1 μg of mRNA) for 5 hours. After the media was changed to DMEM/10% FBS for 19 hours, the cell viability was measured using the trypan blue cell exclusion assay (Trypan Blue solution, 0.4%; Sigma‐Aldrich, St Louis, MO, USA). ^41
# After the medium was changed to Opti-MEM, either the polymer (4 µg) or the polyplex (4 µg HK; 1 µg mRNA) was added to the cells for 5 h. The media was then changed to DMEM/10% FBS for 19 h and the cell viability was determined using the trypan cell exclusion assay.
# [3] = Particle size, polydispersity index (PDI) and zeta potential of polyplexes (dynamic light scattering); format: physicochemical; conditions: HK peptide (4 μg) + mRNA (1 μg), 25°C; for Zeta potential of polyplex / Size of polyplex: mean ± SD of three measurements; for Size of polyplex: DLS 90°, z‐average; for PDI of polyplex: DLS
# Method: The size, PDI and zeta potential were determined with the Zetasizer (Malvern, Westborough, MA, USA) and analyzed with Zetasizer, version 6.2 (Malvern). Using dynamic light scattering at a 90° angle, the size of the particles were reported as the z‐average diameter from the intensity‐weighted size distribution. Prior to the measurements, the samples were equilibrated to 25°C for 2 minutes. Each measurement had at least 10 sub‐runs under the automatic mode of the software. The particle size, PDI and zeta potential data point represent the mean ± SD of three measurements. After mixing HK peptides (4 μg) and mRNA (1 μg) in 100 μl of defined media (Opti‐MEM, water, or DMEM/8% FBS) for 30 minutes, 100 μl of additional defined media was added to the polyplex solution (total volume 200 μl) to measure the size and PDI. To determine the zeta potential, 800 μl more of the media was added (total volume 1000 μl), mixed gently and then added to the disposable zeta cell.
# Acid–base titration = format: physicochemical; conditions: 5 mg/ml, from pH 3.0, 5 μl aliquots of 0.05 M NaOH to about pH 9.0
# Method: After the polymer solution [H2K4b, H3K4b, H3K(+H)4b and H4K4b] was adjusted to pH 3.0 (5 mg/ml; initial volume 1 ml), aliquots (5 μl) of NaOH (0.05 M) were stepwise added with the pH measured (FiveEasy™ meter; InLab Solids Pro‐ISM pH electrode; Mettler Toledo, Columbus, OH, USA). Titration was stopped at approximately pH 9.0.
# FIGURE 2 Titration of different HK peptide solutions. Solutions of polymers (5 mg/ml) [H2K4b, H3K4b, H3K(+H)4b and H4K4b] were adjusted to pH 3 (initial volume 1 ml) and then 5‐μl aliquots of 0.05 N NaOH were stepwise added and the pH was measured
# [4] = cited from earlier work
# [5] = ratio 1:4 (wt:wt; mRNA:polymer; 1 µg mRNA, 4 µg HK)
# [6] = ratio 1:8 (wt:wt; mRNA:polymer; 1 µg mRNA, 8 µg HK)
# [7] = ratio 1:12 (wt:wt; mRNA:polymer; 1 µg mRNA, 12 µg HK)
substance,measurement,setting,value
"R = KHHHKHHHKHHHHKHHHK [H3K(+H)4b, four‐branched analogue of H3K4b with one extra histidine in the second ‐HHHK‐ motif]",Luciferase expression relative to H3K4b peptide,"MDA‐MB‐231 cells [1]; fold greater, ratio 4:1 (HK:mRNA; w:w)",10 fold
same,Effectiveness as carrier of mRNA,MDA‐MB‐231 cells [1],effective carriers of mRNA
same,"Luciferase activity, RLU/µg-Protein",MDA‐MB‐231 cells [1]; [5],1532.9±122.9 RLU/µg-Protein
same,"Luciferase activity, RLU/µg-Protein",MDA‐MB‐231 cells [1]; [6],1656.3±202.5 RLU/µg-Protein
same,"Luciferase activity, RLU/µg-Protein",MDA‐MB‐231 cells [1]; [7],1033.4±197 RLU/µg-Protein
same,% Viability,MDA‐MB‐231 cells [2],96.3%
same,Zeta potential of polyplex,[3]; DMEM/8%FBS,−12.7 ± 1.04 mV
same,Size of polyplex,[3]; DMEM/8%FBS,289 ± 38.2 nm
same,PDI of polyplex,[3]; DMEM/8%FBS,0.307
same,Zeta potential of polyplex,[3]; Opti‐MEM,2.92 ± 1.83 mV
same,Size of polyplex,[3]; Opti‐MEM,"1,004 ± 61.1 nm"
same,PDI of polyplex,[3]; Opti‐MEM,0.362
same,Zeta potential of polyplex,[3]; Water,20.77 ± 1.12 mV
same,Size of polyplex,[3]; Water,234.9 ± 2.7 nm
same,PDI of polyplex,[3]; Water,0.212
same,Buffering profile from pH titration curves,Acid–base titration,minimal differences in their buffering profile
same,Carrier of siRNA,[4],effective carriers of siRNA
"R = KHHHKHHHKHHHKHHHK [H3K4b, four‐branched histidine‐lysine peptide with four ‐HHHK‐ motifs in each branch]",Effectiveness as carrier of mRNA,MDA‐MB‐231 cells [1],not effective carriers of mRNA
same,"Luciferase activity, RLU/µg-Protein",MDA‐MB‐231 cells [1]; [5],156.8±41.8 RLU/µg-Protein
same,"Luciferase activity, RLU/µg-Protein",MDA‐MB‐231 cells [1]; [6],62.1±13.2 RLU/µg-Protein
same,"Luciferase activity, RLU/µg-Protein",MDA‐MB‐231 cells [1]; [7],18.1±4.0 RLU/µg-Protein
same,% Viability,MDA‐MB‐231 cells [2],95.6%
same,Zeta potential of polyplex,[3]; DMEM/8%FBS,−12.1 ± 2.22 mV
same,Size of polyplex,[3]; DMEM/8%FBS,578 ± 80.5 nm
same,PDI of polyplex,[3]; DMEM/8%FBS,0.421
same,Zeta potential of polyplex,[3]; Opti‐MEM,−4.20 ± 2.78 mV
same,Size of polyplex,[3]; Opti‐MEM,"2,030.7 ± 117.3 nm"
same,PDI of polyplex,[3]; Opti‐MEM,0.466
same,Zeta potential of polyplex,[3]; Water,16.47 ± 0.74 mV
same,Size of polyplex,[3]; Water,199.9 ± 0.8 nm
same,PDI of polyplex,[3]; Water,0.171
same,Buffering profile from pH titration curves,Acid–base titration,minimal differences in their buffering profile
same,Carrier of siRNA,[4],effective carriers of siRNA
